Test results: patent US9968541B2, “Optical treatment methods” (ON Light Sciences Inc., priority 2011, dated 2018)
“Also recorded” adds a separate entry of the source.

Assays:
[1] = cited from earlier work
[2] = system: cavitation-induced whitening immediately after laser treatment of tattoos; test: Pilot study: topical perfluorodecalin by cotton swab prior to each laser pass in tattoo removal; assay type: in vivo, patients
Procedure: Results of a pilot study related to the disclosure will be first released publicly in April 2012. The pilot study included tattoo removal with repeated laser exposures in one session, in which the need for 20-minute treatment intervals was eliminated. The pilot study was conducted at the Laser & Skin Surgery Center of New York (New York, N.Y.), under the direction of Roy G. Geronemus MD. […] A treatment delay of twenty minutes for resolution of whitening limited practicality of the technique, requiring up to eighty minutes of treatment time per visit. Medical grade, sterile perfluorodecalin, an inert, non-toxic liquid fluorocarbon with properties including optical clarity and gas-carrying capacity, was evaluated in the pilot study in an effort to speed resolution of cavitation-induced whitening immediately after laser treatment of tattoos. Perfluorodecalin may increase the optical penetration of lasers. The pilot study was performed in consenting patients with unwanted tattoos. Each tattoo was treated in whole or part with topical perfluorodecalin by cotton swab prior to each laser pass. Lasers and settings were selected by a dermatologist. During and after treatments, extent and duration of whitening reaction was assessed as well as appearance of adverse effects, including pigmentary change or scarring. […] In fifteen tattoos, perfluorodecalin was applied prior to each laser pass and the tattoo was treated with three Q-switched ruby laser passes immediately following one another in a single session. In five tattoos, a portion was treated with perfluorodecalin prior to a single pass of Q-switched ruby or Nd:YAG laser. […] After each laser pass, the whitening reaction resolved within five seconds of perfluorodecalin application. All treatments were well-tolerated with local anesthesia.

[3] = as described by Tsai; cited from earlier work

In the case of `FC1(F)C(F)(F)C(F)(F)C2(F)C(F)(F)C(F)(F)C(F)(F)C(F)(F)C2(F)C1(F)F` (stereo not drawn) [perfluorodecalin], the solubility in water ([1]; as described by Tsai) is listed as “very low solubility in water”, the “thermal stability (stable up to)” value ([1]; generally regarded) is listed as “about 400 °C” and the “time for whitening reaction to resolve after perfluorodecalin application” value ([2]; after each laser pass, Q-switched ruby or Nd:YAG laser, topical by cotton swab, patients' tattoos) is listed as “five”. The “adverse effects (including pigmentary change or scarring)” value ([2]; follow-up at 3-6 weeks) was “no adverse effects occurred”, the “healing (amount of blistering, crusting or other changes) compared with previous treatments” value ([2]; subject-reported) was “normal to improved healing” and the “resolution of post-laser whitening” value ([2]; topical application with cotton swab, laser therapy of tattoos) was “effectively resolve whitening in laser therapy within seconds; also recorded: resolves post-laser whitening within seconds”. The “treatment time for multiple passes in a single session” value ([2]; up to four passes in a single session, compared to about 80 minutes with R20) was “about 5 minutes”, the tolerability of treatments ([2]; with local anesthesia, perfluorodecalin prior to each laser pass) was “well-tolerated” and the toxicity [3] was “non-toxic”.
